From ChEMBL document CHEMBL1799962, “Indolin-2-one p38α inhibitors I: design, profiling and crystallographic binding mode” (Bioorg Med Chem Lett, 2011) come the findings set out here.

The structures appear in SMILES notation. ≈ marks a conversion by molar mass, not a printed value. Where only a bound is given, the exact number is not on record here.

A short description of series [1]: AUC (0 to infinity) in rat at 1 mg/kg, iv. The class given is ADME, organism-based. The arrangement: time infinity, dose 1 mg/kg, route intravenous. The conditions noted are these: plasma.
Series [2] in a line: Cmax in rat at 1 mg/kg, iv. The class given is ADME, organism-based. The arrangement: dose 1 mg/kg, route intravenous. The note with it: in vivo.
Series [3] is described as follows: Terminal half life in rat at 1 mg/kg, iv. The class given is ADME, organism-based. On the set-up: dose 1 mg/kg, route intravenous. The note with it: in vivo, read-out: beta t1/2 (converted).
Series [4] in a line: Oral bioavailability in rat at 10 mg/kg. The class given is ADME, organism-based. The conditions noted are these: in vivo.
Series [5] in a line: Clearance in rat at 1 mg/kg, iv. The class given is ADME, organism-based. On the set-up: dose 1 mg/kg, route intravenous. The conditions noted are these: in vivo.
Series [6] in a line: Cmax in rat at 10 mg/kg, po. It counts as ADME, organism-based. On the set-up: dose 10 mg/kg, route oral. The note with it: in vivo.
A short description of series [7]: Volume of distribution at steady state in rat at 1 mg/kg, iv. The note with it: in vivo, read-out: Vdss. The arrangement: dose 1 mg/kg, route intravenous. It counts as ADME, organism-based.
Series [8] in a line: Apparent permeability from basolateral to apical side in human Caco2 cells at 12.5 uM. It counts as ADME, cell-based. The conditions noted are these: Caco-2.
The nature of series [9]: Apparent permeability from apical to basolateral side in human Caco2 cells at 12.5 uM. It counts as ADME, cell-based. The conditions noted are these: Caco-2.
Series [10] in a line: Primary phase half life in rat at 1 mg/kg, iv. The arrangement: dose 1 mg/kg, route intravenous. The class given is ADME, organism-based. The conditions noted are these: in vivo, read-out: alphat1/2.
A short description of series [11]: Thermodynamic solubility of the compound in aqueous buffer at pH 7.4 at 37 degC by HPLC-UV analysis. It counts as physicochemical. The note with it: read-out: Therm_solubility.

In series [1], `Cc1ccc(C(=O)NC2CC2)cc1-c1ccc2c(c1)NC(=O)C21CCCC1` returned an area under the curve AUC(0-inf) of 2530 ng·h/mL. In addition, the results for the Cmax in [2] and in series [6] were 2000 ng/mL and 367 ng/mL, respectively. Moreover, the half-life in series [3] was 5.3 h; in series [10], less than 1 h. The molecule also displayed a bioavailability in [4] of 10%. The molecule further had a clearance in [5] of 6.6 mL/min/kg. In addition, in series [7], the Vd came to 0.8 L/kg. Also, the apparent permeability from basolateral to apical (Papp B→A) at 12.5 µM in [8] was determined as 10 ×10⁻⁶ cm/s. Also, the Papp A→B at 12.5 µM in series [9] is 18 ×10⁻⁶ cm/s. Further, the solubility thermodynamic in [11] was 3 µg/mL (≈ 8.32 µM).
